Results taken from article PMC3985486 (Biochemistry, 2014).
In brackets after ≈: the same amount, converted by molar mass.

What was measured:
[1] = system: S. aureus strain ATCC 29213; experiment: Broth microdilution MIC, S. aureus; type: cell-based, Staphylococcus aureus
[2] = system: E. faecalis strain ATCC 29212; experiment: Broth microdilution MIC, E. faecalis; type: cell-based, Enterococcus faecalis
[3] = Staphylococcus aureus, ATCC29213
[4] = Staphylococcus aureus, ATCC29213, pH 5.8
[5] = Staphylococcus aureus, ATCC29213, pH 7
[6] = Enterococcus faecalis, ATCC29212, pH 5.8, E. faecalis 29212, pH 5.8
[7] = Enterococcus faecalis, ATCC29212, pH 7, E. faecalis 29212, pH 7

`CCC[C@H]1c2ccccc2C=NN1C(=O)/C=C/c1cc(Cc2cnc(N)nc2N)cc(OC)c1OC` (racemic) [RAB, (S,E)-3-{5-[(2,4-diaminopyrimidin-5-yl)methyl]-2,3-dimethoxyphenyl}-1-[1-propylphthalazin-2(1H)-yl]-2-propen-1-one] gave an MIC [1, 3] of 0.06 µg/mL (≈ 0.123 µM), an MIC [1, 4] of 0.25 µg/mL (≈ 0.514 µM) and an MIC [1, 5] of 0.03 to 0.06 µg/mL (≈ 0.0617 to 0.123 µM). The MIC [2, 6] was 0.125 to 0.25 µg/mL (≈ 0.257 to 0.514 µM) and the MIC [2, 7] was 0.06 µg/mL (≈ 0.123 µM).
With `CN[C@H](CC(C)C)C(=O)N[C@H]1C(=O)N[C@@H](CC(N)=O)C(=O)N[C@H]2C(=O)N[C@H]3C(=O)N[C@H](C(=O)N[C@H](C(=O)O)c4cc(O)cc(O)c4-c4cc3ccc4O)[C@H](O)c3ccc(c(Cl)c3)Oc3cc2cc(c3O[C@@H]2O[C@H](CO)[C@@H](O)[C@H](O)[C@H]2O[C@H]2C[C@](C)(N)[C@H](O)[C@H](C)O2)Oc2ccc(cc2Cl)[C@H]1O` [VAN] the MIC ([1]; S. aureus 29213, folinic acid 0.1 μg/mL added) was 1 µg/mL (≈ 0.69 µM), the MIC ([1]; S. aureus 29213, pH 5.8) was 1 µg/mL (≈ 0.69 µM) and the MIC ([1]; S. aureus 29213, pH 7) was 1 µg/mL (≈ 0.69 µM). For the same compound, the MIC ([2]; E. faecalis 29212, folinic acid 0.1 μg/mL added) was 2 to 4 µg/mL, the MIC ([2]; E. faecalis 29212, pH 5.8) was 1 to 2 µg/mL and the MIC ([2]; E. faecalis 29212, pH 7) was 1 to 2 µg/mL.
`COc1cc(Cc2cnc(N)nc2N)cc(OC)c1OC` [TMP, trimethoprim] was tested, and the “increase in MIC in acidic environment” value ([1]; S. aureus, acidic pH vs pH 7) was 2–3 fold, the MIC [1, 3] was 2 to 4 µg/mL (≈ 6.89 to 13.8 µM) and the MIC [1, 4] was 8 µg/mL (≈ 27.6 µM). The MIC [1, 5] was 2 µg/mL (≈ 6.89 µM), the “increase in MIC in acidic environment” value ([2]; E. faecalis, acidic pH vs pH 7) was 2–3 fold and the “shift (increase) in MIC with exogenous folinic acid” value ([2]; E. faecalis, folinic acid in media vs none) was “up to 1 fold”. The MIC [2, 6] was 1 µg/mL (≈ 3.44 µM) and the MIC [2, 7] was 0.125 to 0.25 µg/mL (≈ 0.431 to 0.861 µM).
